For 27 compounds, IC50 results are on record in US10392404B2, “Compounds and compositions as kinase inhibitors” (NOVARTIS AG, priority 2014, dated 2019).

Structures are written as SMILES.

The target of one experiment is T1, C-RAF (Homo sapiens, UniProt P04049, Y340E/Y341E).
T1 construct: His tag (implied by nickel chromatography) (cleaved yes); StrepII tag (cleaved yes); made in house; host or cells: Sf9 insect cells (baculovirus), CRAF and h14-3-3 zeta co-expressed; MEK1 substrate from E. coli
T1 sequence (P04049 whole entry Y340E/Y341E): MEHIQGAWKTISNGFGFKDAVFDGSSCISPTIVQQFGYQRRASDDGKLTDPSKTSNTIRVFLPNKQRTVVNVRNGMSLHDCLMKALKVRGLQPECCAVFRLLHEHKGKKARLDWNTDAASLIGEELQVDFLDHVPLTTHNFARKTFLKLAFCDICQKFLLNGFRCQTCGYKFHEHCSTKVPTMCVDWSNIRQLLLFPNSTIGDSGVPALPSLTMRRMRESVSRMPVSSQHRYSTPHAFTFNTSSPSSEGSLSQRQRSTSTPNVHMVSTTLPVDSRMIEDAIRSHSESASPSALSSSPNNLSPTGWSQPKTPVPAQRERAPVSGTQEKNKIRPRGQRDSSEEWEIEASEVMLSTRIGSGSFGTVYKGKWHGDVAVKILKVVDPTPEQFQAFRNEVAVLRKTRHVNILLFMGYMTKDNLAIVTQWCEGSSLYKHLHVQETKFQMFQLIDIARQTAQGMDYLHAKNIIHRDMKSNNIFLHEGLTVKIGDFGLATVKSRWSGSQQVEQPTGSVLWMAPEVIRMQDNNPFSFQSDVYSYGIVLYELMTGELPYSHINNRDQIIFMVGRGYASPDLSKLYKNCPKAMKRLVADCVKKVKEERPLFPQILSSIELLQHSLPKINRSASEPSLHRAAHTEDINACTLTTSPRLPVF
T1 sequence (P63104 whole entry partner): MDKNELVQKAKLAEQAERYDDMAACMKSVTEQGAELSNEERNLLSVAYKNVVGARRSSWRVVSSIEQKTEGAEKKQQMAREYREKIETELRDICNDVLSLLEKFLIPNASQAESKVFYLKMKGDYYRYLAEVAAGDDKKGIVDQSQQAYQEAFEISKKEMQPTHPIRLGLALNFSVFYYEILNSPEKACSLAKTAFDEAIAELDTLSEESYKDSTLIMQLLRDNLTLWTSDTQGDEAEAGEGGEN
Kind of experiment: In vitro Raf activity determination (Alpha Screen, biotinylated kinase-dead MEK1 substrate), C-Raf. Type of experiment: biochemical. The settings on record: c-Raf approximately 4 nM; ATP 1 μM; pre-incubation 60 minutes; reaction 1 hour at room temperature. The essentials:
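AlphaScreen read-out of MEK phosphorylation using an anti-phospho-MEK1/2 antibody after a 1 hour room-temperature reaction at 1 μM ATP. Enzyme: approximately 4 nM Sf9-expressed full-length activated C-Raf (Y340E/Y341E, with 14-3-3ζ) on approximately 10 nM biotinylated K97R MEK1, after 60 min compound preincubation. IC50 by non-linear fit.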

A further experiment concerns the target T2, b-Raf (V600E) (Homo sapiens, UniProt P15056, V600E).
T2 construct: made in house
Put plainly: In vitro Raf activity determination (Alpha Screen, biotinylated kinase-dead MEK1 substrate), B-Raf. Type of experiment: biochemical. The settings on record: b-Raf (V600E) approximately 4 pM; ATP 10 μM; pre-incubation 60 minutes; reaction 3 hours at room temperature. The method in brief: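 IC50 from non-linear regression of AlphaScreen phospho-MEK signal (anti-p-MEK1/2 antibody). b-Raf(V600E), about 4 pM, phosphorylated ~10 nM biotinylated K97R MEK1 with 10 μM ATP for 3 h at room temperature after 60 min compound pre-incubation; buffer pH 7.5 Tris, 15 mM MgCl2, 1 mM DTT.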

T2 sequence (P15056 whole entry V600E): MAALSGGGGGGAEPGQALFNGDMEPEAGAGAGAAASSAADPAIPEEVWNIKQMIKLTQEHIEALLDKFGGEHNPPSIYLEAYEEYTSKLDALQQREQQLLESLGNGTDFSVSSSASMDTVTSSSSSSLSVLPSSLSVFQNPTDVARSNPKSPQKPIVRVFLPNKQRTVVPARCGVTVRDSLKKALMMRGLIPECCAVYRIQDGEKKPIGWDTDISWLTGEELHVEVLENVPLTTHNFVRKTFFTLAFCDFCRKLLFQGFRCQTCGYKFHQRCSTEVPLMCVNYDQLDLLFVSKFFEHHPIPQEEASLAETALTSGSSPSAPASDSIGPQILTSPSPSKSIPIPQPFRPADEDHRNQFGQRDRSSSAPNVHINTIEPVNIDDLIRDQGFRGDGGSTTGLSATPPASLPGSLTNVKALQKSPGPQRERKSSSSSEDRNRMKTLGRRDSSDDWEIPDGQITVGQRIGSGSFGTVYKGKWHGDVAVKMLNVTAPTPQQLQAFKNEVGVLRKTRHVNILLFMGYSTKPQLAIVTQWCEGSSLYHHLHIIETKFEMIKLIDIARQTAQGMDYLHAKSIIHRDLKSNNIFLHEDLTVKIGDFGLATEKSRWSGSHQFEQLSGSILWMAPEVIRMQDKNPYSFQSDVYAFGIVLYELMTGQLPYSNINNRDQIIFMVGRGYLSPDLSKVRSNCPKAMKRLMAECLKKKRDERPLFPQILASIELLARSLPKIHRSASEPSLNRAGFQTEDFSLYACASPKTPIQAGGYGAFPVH

Turning to `Cc1ccc(NC(=O)c2ccnc(S(C)(=O)=O)c2)cc1-c1cnc(N2CC(C)(O)C2)c(C#N)c1` [Example 217, N-(3-(5-cyano-6-(3-hydroxy-3-methylazetidin-1-yl)pyridin-3-yl)-4-methylphenyl)-2-(methylsulfonyl) isonicotinamide], the IC50 (commonly the concentration at which inhibition is half-maximal) was found to be 1.07 nM against C-RAF and 6.78 nM against b-Raf (V600E).
For `Cc1ccc(NC(=O)c2cnnc(C(C)(C)C#N)c2)cc1-c1cnc(NC2CCOCC2)c(C#N)c1` [Example 204, N-(3-(5-cyano-6-((tetrahydro-2H-pyran-4-yl)amino)pyridin-3-yl)-4-methylphenyl)-6-(2-cyanopropan-2-yl)pyridazine-4-carboxamide] the same measures were 0.219 nM and 1.45 nM.
Regarding `Cc1ncc(NC(=O)c2ccnc(C(C)(C)C#N)c2)cc1-c1cnc(-c2ccc(=O)n(C)c2)c(C#N)c1` [Example 105, N-(3′-cyano-1,2″- dimethyl-6-oxo-1,6-dihydro-[3,2′:5′,3″- terpyridin]-5″-yl)-2-(2-cyanopropan-2-yl)isonicotinamide], the figures for the IC50 at C-RAF and against b-Raf (V600E) were 2.75 nM and 18 nM, respectively.
`Cc1ccc(NC(=O)c2ccnc(S(C)(=O)=O)c2)cc1-c1cnc(N2CCOCC2)c(C#N)c1` [Example 156, N-(3-(5-cyano-6-morpholinopyridin-3-yl)-4-methylphenyl)-2-(methylsulfonyl) isonicotinamide]: the IC50 at C-RAF amounted to 0.0597 nM; against b-Raf (V600E), 0.35 nM.
For the compound `Cc1ncc(NC(=O)c2ccnc(C(F)(F)F)c2)cc1-c1cnc(N2CCNCC2)c(C#N)c1` [Example 70, N-(5′-cyano-2-methyl-6′-(piperazin-1-yl)-[3,3′-bipyridin]-5-yl)-2-(trifluoromethyl) isonicotinamide], the IC50 turned out to be 0.418 nM against C-RAF and 0.994 nM against b-Raf (V600E).
For `Cc1ncc(NC(=O)c2ccnc(C(C)(C)O)c2)cc1-c1cnc(N(C)C)c(C#N)c1` [Example 272, N-(5′-cyano-6′-(dimethylamino)-2-methyl-[3,3′-bipyridin]-5-yl)-2-(2-hydroxypropan-2-yl)isonicotinamide] the same measures were 2.16 nM and 18.4 nM.
The corresponding values for `CNc1ncc(-c2cc(NC(=O)c3cccc(C(F)(F)F)c3)cnc2C)cc1C#N` [Example 8, N-(5′-cyano-2-methyl-6′-(methylamino)-[3,3′-bipyridin]-5-yl)-3-(trifluoromethyl) benzamide] are 0.25 nM and 1.98 nM.
As to `Cc1ncc(NC(=O)c2ccnc(C3(C#N)CC3)c2)cc1-c1cnc(N2CC(C)(O)C2)c(C#N)c1` [Example 189, N-(5′-cyano-6′-(3-hydroxy-3-methylazetidin-1-yl)-2-methyl-[3,3′-bipyridin]-5-yl)-2-(1-cyanocyclopropyl) isonicotinamide], the IC50 against C-RAF worked out at 0.39 nM; against b-Raf (V600E), 3.41 nM.
For `Cc1ccc(NC(=O)c2ccnc(C(C)(C)C#N)c2)cc1-c1cnc(-c2cnn(C)c2)c(C#N)c1` [Example 125, N-(3-(5-cyano-6-(1-methyl-1H-pyrazol-4-yl)pyridin-3-yl)-4-methylphenyl)-2-(2-cyanopropan-2-yl)isonicotinamide] the same measures were 0.254 nM and 1.46 nM.
For `Cc1ccc(NC(=O)c2ccnc(S(C)(=O)=O)c2)cc1-c1cnc(N(C)C)c(C#N)c1` [Example 261, N-(3-(5-cyano-6-(dimethylamino)pyridin-3-yl)-4-methylphenyl)-2-(methylsulfonyl) isonicotinamide], the values for the IC50 on C-RAF and against b-Raf (V600E) were 0.106 nM and 0.71 nM, respectively.
The corresponding values for `Cc1ncc(NC(=O)c2ccnc(C(C)(C)C#N)c2)cc1-c1cnc(OCCO)c(C#N)c1` [Example 98, N-(5′-cyano-6′-(2-hydroxyethoxy)-2-methyl-[3,3′-bipyridin]-5-yl)-2-(2-cyanopropan-2-yl)isonicotinamide] are 9.21 nM and 74.3 nM.
On to `Cc1ccc(NC(=O)c2ccnc(C(C)(C)C#N)c2)cc1-c1cnc(NC2CCOCC2)c(C#N)c1` [Example 60, N-(3-(5-cyano-6-((tetrahydro-2H-pyran-4-yl)amino)pyridin-3-yl)-4-methylphenyl)-2-(2-cyanopropan-2-yl)isonicotinamide], for which the IC50 on C-RAF was found to be 0.367 nM; against b-Raf (V600E), 1.08 nM.
The corresponding values for `Cc1ccc(NC(=O)c2cn(C(C)C)nc2C)cc1-c1cnc(N(C)C)c(C#N)c1` [Example 253, N-(3-(5-cyano-6-(dimethylamino)pyridin-3-yl)-4-methylphenyl)-1-isopropyl-3-methyl-1H-pyrazole-4-carboxamide] are 2.5 nM and 16.5 nM.
As to `Cc1ccc(NC(=O)c2ccnc(C(C)(F)F)c2)cc1-c1cnc(N2CCNCC2)c(C#N)c1` [Example 161, N-(3-(5-cyano-6-(piperazin-1-yl)pyridin-3-yl)-4-methylphenyl)-2-(1,1-difluoroethyl) isonicotinamide], the IC50 was determined as 0.153 nM against C-RAF and 0.577 nM at b-Raf (V600E).
For `Cc1ccc(NC(=O)c2cnnc(C(C)(C)C#N)c2)cc1-c1cnc(N2CCOCC2)c(C#N)c1` [Example 206, N-(3-(5-cyano-6-morpholinopyridin-3-yl)-4-methylphenyl) 6-(2-cyanopropan-2 yl)pyridazine-4-carboxamide] the same measures were 0.199 nM and 1.23 nM.
For `Cc1ccc(NC(=O)c2ccnc(C(C)(C)C#N)c2)cc1-c1cnc(N)c(C#N)c1C` [Example 9, N-(3-(6-amino-5-cyano-4-methylpyridin-3-yl)-4-methylphenyl)-2-(2-cyanopropan-2-yl)isonicotinamide] the same measures were 6.55 nM and 60.8 nM.
The corresponding values for `CNc1ncc(-c2cc(C(=O)Nc3cccc(C(F)(F)F)c3)ccc2C)cc1C#N` [Example 7, 3-(5-cyano-6-(methylamino)pyridin-3-yl)-4-methyl-N-(3-(trifluoromethyl)phenyl) benzamide] are 0.566 nM and 4.44 nM.
With `COCCNc1ncc(-c2cc(NC(=O)c3ccnc(C(C)(C)C#N)c3)cnc2C)cc1C#N` [Example 198, N-(5′-cyano-6′-((2-methoxyethyl)amino)-2-methyl-[3,3′-bipyridin]-5-yl)-2-(2-cyanopropan-2-yl)isonicotinamide], the IC50 was determined as 4.06 nM against C-RAF and 13.4 nM against b-Raf (V600E).
The corresponding values for `Cc1ncc(NC(=O)c2ccnc(C(C)(C)C#N)c2)cc1-c1cnc(N2C[C@H]3C[C@@H]2CO3)c(C#N)c1` [Example 90, N-(6′-((1R,4R)-2-oxa-5-azabicyclo[2.2.1]heptan-5-yl)-5′-cyano-2-methyl-[3,3′-bipyridin]-5-yl)-2-(2-cyanopropan-2-yl)isonicotinamide] are 2.1 nM and 8.94 nM.
For `Cc1ncc(NC(=O)c2ccnc(C(C)(C)C#N)c2)cc1-c1cnc(N2CCOCC2)c(C#N)c1` [Example 64, N-(5′-cyano-2-methyl-6′-morpholino-[3,3′-bipyridin]-5-yl)-2-(2-cyanopropan-2-yl)isonicotinamide] the same measures were 0.832 nM and 3.7 nM.
The corresponding values for `Cc1ccc(NC(=O)c2ccnc(C(F)(F)F)c2)cc1-c1cnc(N2CCNCC2)c(C#N)c1` [Example 153, N-(3-(5-cyano-6-(piperazin-1-yl)pyridin-3-yl)-4-methylphenyl)-2-(trifluoromethyl) isonicotinamide] are 0.15 nM and 0.7 nM.
For the compound `COCCNc1ncc(-c2cc(NC(=O)c3ccnc(C(C)(C)O)c3)cnc2C)cc1C#N` [Example 210, N-(5′-cyano-6′-((2-methoxyethyl)amino)-2-methyl-[3,3′-bipyridin]-5-yl)-2-(2-hydroxypropan-2-yl)isonicotinamide], the IC50 against C-RAF came to 5.97 nM; against b-Raf (V600E), 36 nM.
The corresponding values for `Cc1ccc(NC(=O)c2ccnc(C(F)(F)F)c2)cc1-c1cnc(N2CC(C)(O)C2)c(C#N)c1` [Example 212, N-(3-(5-cyano-6-(3-hydroxy-3-methylazetidin-1-yl)pyridin-3-yl)-4-methylphenyl)-2-(trifluoromethyl) isonicotinamide] are 0.32 nM and 1.15 nM.
With `Cc1ncc(NC(=O)c2cnnc(C(C)(C)C#N)c2)cc1-c1cnc(NC2CCOCC2)c(C#N)c1` [Example 205, N-(5′-cyano-2-methyl-6′-((tetrahydro-2H-pyran-4-yl)amino)-[3,3′-bipyridin]-5-yl)-6-(2-cyanopropan-2-yl)pyridazine-4-carboxamide], the IC50 was found to be 1.82 nM against C-RAF and 10.9 nM against b-Raf (V600E).
For `Cc1ncc(NC(=O)c2cccc(C(F)(F)F)c2)cc1-c1cnc(C2CCOCC2)c(C#N)c1` [Example 128] the same measures were 0.202 nM and 1.34 nM.
The corresponding values for `Cc1nn(C)cc1C(=O)Nc1cnc(C)c(-c2cnc(N(C)C)c(C#N)c2)c1` [Example 264, N-(5′-cyano-6′-(dimethylamino)-2-methyl-[3,3′-bipyridin]-5-yl)-1,3-dimethyl-1H-pyrazole-4-carboxamide] are 148 nM and 1970 nM.
As to `Cc1ncc(NC(=O)c2cc(C(F)(F)F)nn2C)cc1-c1cnc(N(C)C)c(C#N)c1` [Example 267, N-(5′-cyano-6′-(dimethylamino)-2-methyl-[3,3′-bipyridin]-5-yl)-1-methyl-3-(trifluoromethyl)-1H-pyrazole-5-carboxamide], the IC50 against C-RAF was 196 nM; against b-Raf (V600E), 1660 nM.
